Results from BindingDB's records for doi:10.3109/14756366.2013.827675 (Orchid Chemicals & Pharmaceuticals Limited, 2014).

What follows are compounds tested against Histone deacetylase 1/11/4/6/8 (assay: HDAC Activity screening).
Experimental: Histone Deacetylase (HDAC) Inhibition Assay using Boc-Lys(Ac)-AMC Substrate: Inhibition of HDAC has been implicated to modulate transcription and to induce apoptosis or differentiation in cancer cells. The fluorometric assay provides a fast and fluorescence based method that eliminates radioactivity, extractions or chromatography, as used in traditional assays. The assay is based on two steps. First, the HDAC fluorometric substrate, which comprises an acetylated lysine side chain, is incubated with a sample containing HDAC activity (Mouse Liver Extract). Deacetylation of the substrate sensitizes the substrate; in the second step, treatment with the Trypsin, stop solution produces a fluorophore that can be easily analyzed using fluorescence plate reader. Assay was done in 96-well black microplate and total volume of the assay was […]. Mouse liver enzyme (10 mg/mL) was diluted 1:6 with HDAC buffer. Enzyme cocktail was made of 10 mL of diluted enzyme and 30 mL of HDAC buffer. Forty m

`COc1ccc2c(c1)c(=O)c(C(=O)Nc1ccc(F)cc1)cn2CCCCC(=O)NO` [Quinolone-based HDAC inhibitor 4l] and `COc1ccc(NC(=O)c2cn(CCCCC(=O)NO)c3ccc(F)cc3c2=O)cc1` [Quinolone-based HDAC inhibitor 4r] are within 1.5-fold of each other in IC50: 32 nM for the first, 28 nM for the second.

First: O=C(CCCCn1cc(C(=O)NCc2cccs2)c(=O)c2ccccc21)NO [Quinolone-based HDAC inhibitor 4f]
Second: O=C(CCCCn1cc(C(=O)NCc2ccccc2)c(=O)c2ccccc21)NO [Quinolone-based HDAC inhibitor 4d]
The IC50 of the first is 3.2-fold higher: 390 nM for the first, 120 nM for the second. The second is the more potent here.

Compared with `Cc1csc(NC(=O)c2cn(CCCCC(=O)NO)c3ccccc3c2=O)n1` [Quinolone-based HDAC inhibitor 4i], `O=C(CCCCn1cc(C(=O)Nc2nccs2)c(=O)c2ccccc21)NO` [Quinolone-based HDAC inhibitor 4h] is 420-fold higher in IC50: 0.1 nM for the first, 42 nM for the second. The first is the more potent here.

First: COc1ccc(NC(=O)c2cn(CCCCC(=O)NO)c3ccc(F)cc3c2=O)cc1OC [Quinolone-based HDAC inhibitor 4t]
Second: COc1ccc2c(c1)c(=O)c(C(=O)Nc1ccc(OC)c(OC)c1)cn2CCCCC(=O)NO [Quinolone-based HDAC inhibitor 4n]
The IC50 of the first is 1.5-fold higher: 230 nM for the first, 150 nM for the second.

First: COc1ccc2c(c1)c(=O)c(C(=O)Nc1cc(-c3ccccc3)nn1C)cn2CCCCC(=O)NO [Quinolone-based HDAC inhibitor 4o]
Second: COc1ccc2c(c1)c(=O)c(C(=O)Nc1ccccc1)cn2CCCCC(=O)NO [Quinolone-based HDAC inhibitor 4k]
The IC50 of the first is 3.2-fold lower: 10 nM for the first, 32 nM for the second.

Compared with `COc1ccc(CNC(=O)c2cn(CCCCC(=O)NO)c3ccccc3c2=O)cc1` [Quinolone-based HDAC inhibitor 4e], `COc1ccc(NC(=O)c2cn(CCCCC(=O)NO)c3ccccc3c2=O)cc1` [Quinolone-based HDAC inhibitor 4c] is 11-fold lower in IC50: 410 nM for the first, 39 nM for the second. The second is the more potent here.

Compared with `O=C(CCCCn1cc(C(=O)Nc2ccc(F)cc2)c(=O)c2cc(F)ccc21)NO` [Quinolone-based HDAC inhibitor 4q], `O=C(CCCCn1cc(C(=O)Nc2ccc(F)cc2)c(=O)c2ccccc21)NO` [Quinolone-based HDAC inhibitor 4b] is 6.8-fold higher in IC50: 40 nM for the first, 270 nM for the second.

`O=C(CCCCn1cc(C(=O)Nc2nc3ccccc3s2)c(=O)c2cc(F)ccc21)NO` [Quinolone-based HDAC inhibitor 4v] and `COc1ccc2c(c1)c(=O)c(C(=O)Nc1nc3ccccc3s1)cn2CCCCC(=O)NO` [Quinolone-based HDAC inhibitor 4p] are within 1.5-fold of each other in IC50: 39 nM for the first, 28 nM for the second.

Compared with `O=C(CCCCn1cc(C(=O)NC2=CC(c3ccccc3)N=N2)c(=O)c2ccccc21)NO` (stereo not drawn) [Quinolone-based HDAC inhibitor 4w], `O=C(CCCCn1cc(C(=O)Nc2ccccc2)c(=O)c2ccccc21)NO` [Quinolone-based HDAC inhibitor 4a] is 3-fold lower in IC50: 95 nM for the first, 32 nM for the second. The second is the more potent here.

First: COc1ccc(CNC(=O)c2cn(CCCCC(=O)NO)c3ccc(F)cc3c2=O)cc1 [Quinolone-based HDAC inhibitor 4s]
Second: COc1ccc(NC(=O)c2cn(CCCCC(=O)NO)c3ccc(OC)cc3c2=O)cc1 [Quinolone-based HDAC inhibitor 4m]
The IC50 of the first is 4.4-fold higher: 330 nM for the first, 75 nM for the second. The second is the more potent here.

`O=C(CCCCn1cc(C(=O)Nc2ccncc2)c(=O)c2cc(F)ccc21)NO` [Quinolone-based HDAC inhibitor 4u] and `O=C(CCCCn1cc(C(=O)Nc2ccncc2)c(=O)c2ccccc21)NO` [Quinolone-based HDAC inhibitor 4g] are within 1.5-fold of each other in IC50: 85 nM for the first, 90 nM for the second.

Compound `O=C(CCCCn1cc(C(=O)Nc2nc3ccccc3s2)c(=O)c2ccccc21)NO` [Quinolone-based HDAC inhibitor 4j] has an IC50 of 1.5 nM.
